# Laboratory results taken from ChEMBL document CHEMBL2413072, “Synthesis and in vitro anticancer studies of novel C-2 arylidene congeners of lantadenes” (2013).
# Tests used:
# Type in all cases: functional
# [1] = tested on: SF-268; experiment: Growth inhibition of human SF268 cells by sulforhodamine B assay
# [2] = tested on: HCT-116; experiment: Growth inhibition of human HCT116 cells by sulforhodamine B assay
# [3] = Growth inhibition of human HCC2998 cells by sulforhodamine B assay
# [4] = tested on: HOP-62; experiment: Growth inhibition of human HOP62 cells by sulforhodamine B assay
# [5] = tested on: IGROV-1; experiment: Growth inhibition of human IGROV1 cells assessed as cell growth at 10^-8 M by sulforhodamine B assay; conditions: read-out: Activity
# [6] = tested on: SK-MEL-5; experiment: Growth inhibition of human SK-MEL-5 cells assessed as cell growth at 10^-8 M by sulforhodamine B assay; conditions: read-out: Activity
# [7] = tested on: NCI-H522; experiment: Growth inhibition of human NCI-H522 cells assessed as cell growth at 10^-8 M by sulforhodamine B assay; conditions: read-out: Activity
# [8] = tested on: NCI-H23; experiment: Growth inhibition of human NCI-H23 cells assessed as cell growth at 10^-8 M by sulforhodamine B assay; conditions: read-out: Activity
# [9] = tested on: HL-60(TB); experiment: Growth inhibition of human HL-60(TB) cells assessed as cell growth at 10^-8 M by sulforhodamine B assay; conditions: read-out: Activity
# [10] = tested on: UO-31; experiment: Growth inhibition of human UO31 cells by sulforhodamine B assay
# [11] = tested on: OVCAR-3; experiment: Growth inhibition of human OVCAR3 cells by sulforhodamine B assay
# [12] = tested on: UACC-62; experiment: Growth inhibition of human UACC62 cells by sulforhodamine B assay
# [13] = tested on: IGROV-1; experiment: Growth inhibition of human IGROV1 cells by sulforhodamine B assay
# [14] = tested on: LOX IMVI; experiment: Growth inhibition of human LOXIMVI cells by sulforhodamine B assay
# [15] = tested on: SF-539; experiment: Growth inhibition of human SF539 cells by sulforhodamine B assay
# [16] = tested on: SF-295; experiment: Growth inhibition of human SF295 cells by sulforhodamine B assay
# [17] = tested on: MDA-MB-231; experiment: Growth inhibition of human MDA-MB-231 cells assessed as cell growth at 10^-4 M by sulforhodamine B assay; conditions: read-out: Activity
# [18] = tested on: PC-3; experiment: Growth inhibition of human PC3 cells assessed as cell growth at 10^-4 M by sulforhodamine B assay; conditions: read-out: Activity
# [19] = tested on: RXF 393; experiment: Growth inhibition of human RXF393 cells assessed as cell growth at 10^-4 M by sulforhodamine B assay; conditions: read-out: Activity
# [20] = tested on: ACHN; experiment: Growth inhibition of human ACHN cells assessed as cell growth at 10^-4 M by sulforhodamine B assay; conditions: read-out: Activity
# [21] = tested on: IGROV-1; experiment: Growth inhibition of human IGROV1 cells assessed as cell growth at 10^-4 M by sulforhodamine B assay; conditions: read-out: Activity
# [22] = tested on: SK-MEL-2; experiment: Growth inhibition of human SK-MEL-2 cells assessed as cell growth at 10^-4 M by sulforhodamine B assay; conditions: read-out: Activity
# [23] = tested on: SNB-19; experiment: Growth inhibition of human SNB19 cells assessed as cell growth at 10^-4 M by sulforhodamine B assay; conditions: read-out: Activity
# [24] = tested on: CAKI-1; experiment: Growth inhibition of human CAKI-1 cells assessed as cell growth at 10^-6 M by sulforhodamine B assay; conditions: read-out: Activity
# [25] = tested on: UACC-62; experiment: Growth inhibition of human UACC62 cells assessed as cell growth at 10^-6 M by sulforhodamine B assay; conditions: read-out: Activity
# [26] = tested on: SK-MEL-5; experiment: Growth inhibition of human SK-MEL-5 cells assessed as cell growth at 10^-6 M by sulforhodamine B assay; conditions: read-out: Activity
# [27] = tested on: M14; experiment: Growth inhibition of human M14 cells assessed as cell growth at 10^-6 M by sulforhodamine B assay; conditions: read-out: Activity
# [28] = tested on: SNB-75; experiment: Growth inhibition of human SNB75 cells assessed as cell growth at 10^-6 M by sulforhodamine B assay; conditions: read-out: Activity
# [29] = tested on: COLO 205; experiment: Growth inhibition of human COLO205 cells assessed as cell growth at 10^-6 M by sulforhodamine B assay; conditions: read-out: Activity
# [30] = tested on: NCI-H226; experiment: Growth inhibition of human NCI-H226 cells assessed as cell growth at 10^-6 M by sulforhodamine B assay; conditions: read-out: Activity
# [31] = tested on: HOP-62; experiment: Growth inhibition of human HOP62 cells assessed as cell growth at 10^-6 M by sulforhodamine B assay; conditions: read-out: Activity
# [32] = Growth inhibition of human Hs 578T cells assessed as cell growth at 10^-7 M by sulforhodamine B assay; conditions: read-out: Activity
# [33] = tested on: SN12C; experiment: Growth inhibition of human SN12C cells assessed as cell growth at 10^-7 M by sulforhodamine B assay; conditions: read-out: Activity
# [34] = tested on: CAKI-1; experiment: Growth inhibition of human CAKI-1 cells assessed as cell growth at 10^-7 M by sulforhodamine B assay; conditions: read-out: Activity
# [35] = tested on: A549; experiment: Growth inhibition of human A549/ATCC cells assessed as cell growth at 10^-7 M by sulforhodamine B assay; conditions: read-out: Activity
# [36] = tested on: UO-31; experiment: Growth inhibition of human UO31 cells assessed as cell growth at 10^-8 M by sulforhodamine B assay; conditions: read-out: Activity
# [37] = tested on: ACHN; experiment: Growth inhibition of human ACHN cells assessed as cell growth at 10^-8 M by sulforhodamine B assay; conditions: read-out: Activity
# [38] = read-out: LC50 (the source's name)
# [39] = read-out: pLC50 (the source's name) (converted)
compound,measurement,setting,value
CC(C)=CC(=O)O[C@@H]1CC(C)(C)C[C@H]2C3=CC[C@@H]4[C@@]5(C)CC[C@H](O)C(C)(C)[C@@H]5CC[C@@]4(C)[C@]3(C)CC[C@@]12C(=O)O [Reduced Lantadene B],GI50,[1]; read-out: GI50,5.87 µM
same,LC50,[1]; read-out: LC50,97.2 µM
same,TGI,[1]; read-out: TGI,26.1 µM
same,GI50,[1]; read-out: pGI50 (converted),5.89 µM
same,LC50,[1]; read-out: pLC50 (converted),97.7 µM
same,TGI,[1]; read-out: pTGI (converted),26.3 µM
same,GI50,[2]; read-out: GI50,2.67 µM
same,LC50,[2]; read-out: LC50,50.2 µM
same,TGI,[2]; read-out: TGI,15.9 µM
same,GI50,[2]; read-out: pGI50 (converted),2.69 µM
same,LC50,[2]; read-out: pLC50 (converted),50.1 µM
same,TGI,[2]; read-out: pTGI (converted),15.8 µM
same,GI50,"[3]; HCC 2998, read-out: GI50",3.72 µM
same,CC50,"[3]; HCC 2998, read-out: LC50 (the source's name)",62.9 µM
same,TGI,"[3]; HCC 2998, read-out: TGI",15.3 µM
same,GI50,"[3]; HCC 2998, read-out: pGI50 (converted)",3.72 µM
same,CC50,"[3]; HCC 2998, read-out: pLC50 (the source's name) (converted)",63.1 µM
same,TGI,"[3]; HCC 2998, read-out: pTGI (converted)",15.5 µM
same,GI50,[4]; read-out: GI50,7.47 µM
same,LC50 (concentration killing 50% of cells),[4]; read-out: LC50,79.8 µM
same,TGI,[4]; read-out: TGI,26.6 µM
same,GI50,[4]; read-out: pGI50 (converted),7.41 µM
same,LC50 (concentration killing 50% of cells),[4]; read-out: pLC50 (converted),79.4 µM
same,TGI,[4]; read-out: pTGI (converted),26.3 µM
same,growth at 0.01 µM,[5],104%
same,growth at 0.01 µM,[6],93%
same,growth at 0.01 µM,[7],92%
same,growth at 0.01 µM,[8],95%
same,growth at 0.01 µM,[9],101%
same,GI50,[10]; read-out: GI50,3.69 µM
same,CC50,[10]; [38],45.4 µM
same,TGI,[10]; read-out: TGI,15.5 µM
same,GI50,[10]; read-out: pGI50 (converted),3.72 µM
same,CC50,[10]; [39],45.7 µM
same,TGI,[10]; read-out: pTGI (converted),15.5 µM
same,GI50,[11]; read-out: GI50,7.04 µM
same,CC50,[11]; [38],54.7 µM
same,TGI,[11]; read-out: TGI,22.1 µM
same,GI50,[11]; read-out: pGI50 (converted),7.08 µM
same,CC50,[11]; [39],55 µM
same,TGI,[11]; read-out: pTGI (converted),21.9 µM
same,GI50,[12]; read-out: GI50,1.95 µM
same,CC50,[12]; [38],25.2 µM
same,TGI,[12]; read-out: TGI,5.48 µM
same,GI50,[12]; read-out: pGI50 (converted),1.95 µM
same,CC50,[12]; [39],25.1 µM
same,TGI,[12]; read-out: pTGI (converted),5.5 µM
same,GI50,[13]; read-out: GI50,6.35 µM
same,CC50,[13]; [38],> 100 µM
same,TGI,[13]; read-out: TGI,29.4 µM
same,GI50,[13]; read-out: pGI50 (converted),6.31 µM
same,CC50,[13]; [39],> 100 µM
same,TGI,[13]; read-out: pTGI (converted),29.5 µM
same,GI50,[14]; read-out: GI50,9.09 µM
same,CC50,[14]; [38],> 100 µM
same,TGI,[14]; read-out: TGI,38.2 µM
same,GI50,[14]; read-out: pGI50 (converted),9.12 µM
same,CC50,[14]; [39],> 100 µM
same,TGI,[14]; read-out: pTGI (converted),38 µM
same,GI50,[15]; read-out: GI50,8.94 µM
same,CC50,[15]; [38],> 100 µM
same,TGI,[15]; read-out: TGI,36.2 µM
same,GI50,[15]; read-out: pGI50 (converted),8.91 µM
same,CC50,[15]; [39],> 100 µM
same,TGI,[15]; read-out: pTGI (converted),36.3 µM
same,GI50,[16]; read-out: GI50,1.45 µM
same,CC50,[16]; [38],52.8 µM
same,TGI,[16]; read-out: TGI,11.1 µM
same,GI50,[16]; read-out: pGI50 (converted),1.45 µM
same,CC50,[16]; [39],52.5 µM
same,TGI,[16]; read-out: pTGI (converted),11.2 µM
same,growth at 100 µM,[17],-79%
same,growth at 100 µM,[18],-71%
same,growth at 100 µM,[19],-81%
same,growth at 100 µM,[20],-75%
same,growth at 100 µM,[21],-43%
same,growth at 100 µM,[22],-71%
same,growth at 100 µM,[23],-62%
same,growth at 1 µM,[24],85%
same,growth at 1 µM,[25],82%
same,growth at 1 µM,[26],77%
same,growth at 1 µM,[27],89%
same,growth at 1 µM,[28],85%
same,growth at 1 µM,[29],102%
same,growth at 1 µM,[30],86%
same,growth at 1 µM,[31],88%
same,growth at 0.1 µM,[32],97%
same,growth at 0.1 µM,[33],96%
same,growth at 0.1 µM,[34],98%
same,growth at 0.1 µM,[35],79%
same,growth at 0.01 µM,[36],89%
same,growth at 0.01 µM,[37],103%
